The text below walks through data of ChEMBL document CHEMBL5608248, “Exploring the Therapeutic Potential of Entheogens in Postoperative Cognitive Decline and Psychological Resilience” (ACS Med Chem Lett, 2024).

The target in the experiment is 5-hydroxytryptamine receptor 2A (Homo sapiens) (UniProt P28223). The experiment can be described thus: Agonist activity at 5-HT2A (unknown origin) expressed in HEK293 cells assessed as increase in calcium influx by measuring maximal efficacy incubated for 50 mins by Fluo-4 dye based FLIPR assay relative to control. It counts as functional, cell-based. The following applies: filed as agonist.
Chain of 5-hydroxytryptamine receptor 2A (Homo sapiens) (P28223 whole entry): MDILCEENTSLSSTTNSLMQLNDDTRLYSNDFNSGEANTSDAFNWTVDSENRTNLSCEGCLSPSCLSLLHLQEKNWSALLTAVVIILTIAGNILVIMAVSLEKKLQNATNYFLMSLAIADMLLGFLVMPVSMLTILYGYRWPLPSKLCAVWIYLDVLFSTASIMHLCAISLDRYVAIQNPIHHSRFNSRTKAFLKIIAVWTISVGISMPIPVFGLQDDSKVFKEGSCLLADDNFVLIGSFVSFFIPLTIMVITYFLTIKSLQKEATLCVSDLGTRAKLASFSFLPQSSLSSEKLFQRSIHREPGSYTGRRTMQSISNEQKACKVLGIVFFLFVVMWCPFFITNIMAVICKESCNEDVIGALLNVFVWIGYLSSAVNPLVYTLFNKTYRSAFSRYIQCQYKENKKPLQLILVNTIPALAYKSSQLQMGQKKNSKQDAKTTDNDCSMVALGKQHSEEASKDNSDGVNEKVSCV
For `CN(C)CCc1cccc2cccc(O)c12`, the maximal effect (Emax) stood at 73%.

As to `COc1ccc2cccc(CCN(C)C)c2c1`, the maximum response (Emax) was 79%.

For the molecule `CCN(C)CCc1cccc2ccc(OC)cc12`, the Emax was 63%.

For `COc1cccc(CNCCc2cccc3ccc(OC)cc23)c1`, the Emax turned out to be 84%.

With `CC(C)N(C)CCc1cccc2cccc(O)c12`, the Emax turned out to be 79%.

As for `CCN(C)CCc1cccc2cccc(O)c12`, the Emax was 68%.

For `CN(CCc1cccc2cccc(O)c12)C1CC1`, the maximal response (Emax) came to 64%.

The Emax is the maximal effect, on the per cent scale that the assay sets.
